Measurements from patent US20040063624A1, “Method of inhibiting the transition of free HIV virus through the cllular mucosal barrier” (priority 1999, published 2004).

Experiments:
[1] = tested on: HIV-1 strain IIIb; assay: Viral intake and release: cell-free HIV-1 taken up by epithelial monolayer, supernatant titrated on MT4 cells; type: cell-based
Method: Epithelial cells were obtained from biopsies of the gingiva of a healthy donor. The biopsies were washed several times with phosphate-buffered saline and cultured after trypsinization in Dulbecco modified Eagle medium containing 10% fetal calf serum (FCS). Fibroblast growth was suppressed by the addition of recombinant epidermal growth factor (10 μg/liters Sigma, Deisenhofen, Germany) to the culture medium. The epithelial character of the primary cells and the formation of tight junctions were confirmed morphologically by electron microscopy.
(§1) HIV-1 strain IIIb (1,8×10^4 50% tissue culture infective doses [TCID50/ml]) harvested from HIV-1 infected H9 cells was cleared from all debris by centrifugation (10 min. 200×g) and filtered through a 0,2 μm pore size filter membrane. The cell-free virus was diluted 1:10 with Hanks buffer and was placeed in the apical compartment (for details see below). After a 45 min incubation, medium from the lower compartment was harvested. The amount of infectious HIV-1 in the basal chamber of the culture unit was determined by a standard tritation assay Tritation of HIV was performed in triplicate in 24-well tissue culture plates on MT 4 cells seeded at a concentration of 2×10^4/ml. Samples were diluted serially (1:10) in culture medium (RPMI 1640 supplemented with 10% FCS and 5% glutamine). The titration was evaluated between 10 and 14 days postinfection when a prominent cytopathic effect (CPE) was visible. Medium was replaced twice a week with cells being diluted as required. Values of TCID50 per milliliter were determined as described in Reed C. J. et al., 1938, Am. J. Hyg., 27, 494.497. All experiments were performed in triplicate.
HIV-1 strain IIIb (1,8×10^5 TCID50/ml) was placed on epithelial cells (10^6/petri dish). […] After a 1-h incubation, the cells were washed three times with trysin (0,25%) and incubated for 10 min at 37° C. with trypsin solution to inactivate all virus particles adsorbed at the cell surface. The cells were harvested and subcultured for different incubation times (see. Table 1). Subsequently, the cell-free supermatant of each subculture was titrated on MT4 cells as described above.
For the data in Table 1 HIV-1 strain IIIb (1,8×10^4 TCID50/ml) was placed on epithelial cells (10^6/petri dish) with or without inhibitors. After a 1-h incubation the cells were treated with trypsin to inactivate all extracellular HIV particles. Cells were incubated with fresh medium and the supernatants were harvested at different time points. Infectious virus in the supernatant was titrated on MT4 cells (see Materials and Methods). All experiments were performed in triplicate. The differences between the infectious titers with and without inhibitors are highly significant for all incubation times (P<0.001 by the Mann Whitney U test).

[2] = tested on: HIV-1 strain IIIb; assay: Viral transepithelial transport in two-compartment culture system; type: cell-based; conditions: 45 min. incubation; for amount of infectious HIV 1 in the basal compartment: without inhibitor 10^3
Method: For transepithelial transport experiments, primary epitheilal cells (10^4/ml) were grown on a polycarbonate filter membrane (9 mm diameter 3,0 μm pore diameter, Becon Dickinson) separating a basal and an apical chamber and cultivated for 10 days until confluence was observed. The development of an epithelial monolayer was examined by confocal laser microscopy. To further test for confluence a fluorescein solution (0,2 mg/ml) or fluorescent paricles (10^6 particles/ml each particle 0,1 μm in diameter) were added to the apical chamber and fluorescence activity in the basal chambers was measured after 45 min of incubation at 4° C. to inhibit cell membrane diffusion. For calibration of paracellular diffusion membranes were covered with a layer of 15% polyacrylamide gel leaving free circular areas by placing small cylinders of defined size on the filter before gel casting. Fluorescence activity which diffused from the apical to the basal chamber through different areas of uncovered epithelial cells was measured after the 45 min. incubation.
as §1
The HIV-1 specificity of the CPE in MT4 cells was confirmed by determination of p24 core protein content by a p24 antigen capture assay (Coulter). […] Experiments were done in triplicate.

[3] = tested on: transport of gp120 coated particles through the epithelial monolayer; assay: Transepithelial transport of gp120-coated fluorescent particles; type: cell-based, human; conditions: for transport of gp120-coated particles, % of the level for unstimulated cells: FSK- and IBMX-treated cells
Source text: For transepithelial transport studies gp120 was covalently coupled to monodispersed carboxylated fluorescent microparticles (0,1 μm in diameter; Polysciences, Warlington, Pa.) as described previously (Molday R. S., 1975, J. Cell Biol., 64, 75-88). The active groups of the control beads and the remaining gp120 coated beads were blocked with glycine. The attachment of gp120 to the fluoresent particles was quantified by measuring the binding of a monoclonal anti-HIV gp120 antibody to the beads.
The gp120-coated particles were diluted (10^5 partices/ml) in Hanks buffer and placed in the apical chamber after the epithelial cells were washed three times with Hanks buffer. The apical chamber was transferred into a new basal chamber, and Hanks buffer was changed after 10, 40, 90 min of incubation. The buffer harvested at the indicated time points was centrifuged (14.000×g for 15 min), the pellet was resuspended and the fluorescence activity was measured. A combination of forskolin (FSK 10 μM ) and 3-isobutyl-1-methyl-xantin (IBMX, 10 μm) was used to study the effect of cyclic AMP (cAMP) and epithelial transport. Preincubation of the epithelial cells for 2 h increased the intracellular cAMP level eightfold (cAMP immunoassay: Biomol, Plymouth Meeting, Pa.). Glycine-coated microparticles were used as the control for nonspecific paracellular flow under the experimental conditions: the fluorescence of the controls was subtracted from the fluorescence-activities found in the respective experiments with gp120-coated particles.
After incubation for 10, 40 and 90 min at 37° C., the solution in the basal chamber was changed and the fluorescence activity was measured as described above.
To increase the amount of high-mannose-type glycans on the epithelial cells, cells were preincubated for 2 h with 10 mM desoxymannojirimycin (Fuhrmann U. E., 1984, Nature, 307, 755-788). To control the increase of high-mannose-type glycan expression, the filter membrane was cut and placed in 300 μl of lysis buffer (0,2 M Tris-HCl, 2% SDS, 0,1% dithiothreitol). […]

mannan was tested, and the “HIV concn in the supernatant after treatm.” value (“HIV concn in the supernatant” for short) ([1]; Mannan (5 mM), 60 min. after trypsin treatm.) was 10^0 TCID50/ml, the “HIV concn in the supernatant” value ([1]; Mannan (5 mM), 120 min. after trypsin treatm.) was 10^1 TCID50/ml and the “HIV concn in the supernatant” value ([1]; Mannan (5 mM), 160 min after trypsin treatm.) was 10^1 TCID50/ml. The “HIV concn in the supernatant” value ([1]; Mannan (5 mM), 24 h after trypsin treatm.) was 10^1 TCID50/ml, the “reduction of the amount of infectious HIV 1 in the basal compartment” value ([2]; mannan (5 mM)) was 1 order of magnitude and the “amount of infectious HIV 1 in the basal compartment” value ([2]; preincubation with mannan (5 mM)) was 10^2 TCID50/ml. The “transport of gp120-coated particles, % of the level for unstimulated cells” value ([3]; mannan 5 mg/ml final concentration) was “about 50%”.

For `OC[C@H]1NC[C@@H](O)[C@@H](O)[C@@H]1O` [desoxymannojirimycin, reference compound], the “effect on the cAMP-stimulated increase of particles in the basal compartment (in words)” value ([3]; 2 h preincubation with 10 mM desoxymannojirimycin, FSK/IBMX stimulated cells) was “further augmentation”.

Mucin was tested, and the “HIV concn in the supernatant” value ([1]; Mucin (1 mM), 60 min. after trypsin treatm.) was 10^1 TCID50/ml, the “HIV concn in the supernatant” value ([1]; Mucin (1 mM), 120 min. after trypsin treatm.) was 10^1 TCID50/ml and the “HIV concn in the supernatant” value ([1]; Mucin (1 mM), 160 min after trypsin treatm.) was 10^1 TCID50/ml. For the same molecule, the “HIV concn in the supernatant” value ([1]; Mucin (1 mM), 24 h after trypsin treatm.) was 10^1 TCID50/ml, the “inhibition of viral uptake and release of cell-free HIV-1 (in words)” value ([1]; Table 1) was “significantly inhibit” and the “amount of infectious HIV 1 in the basal compartment” value ([2]; mucin (30 mg/ml per method)) was 10^2 TCID50/ml.

`CO[C@H]1O[C@H](CO)[C@@H](O)[C@H](O)[C@@H]1O` [aMMP, α-methyl-mannopyramoside] was tested, and the “HIV concn in the supernatant” value ([1]; aMMP (100 mM), 60 min. after trypsin treatm.) was 10^1 TCID50/ml, the “HIV concn in the supernatant” value ([1]; aMMP (100 mM), 120 min. after trypsin treatm.) was 10^1 TCID50/ml and the “HIV concn in the supernatant” value ([1]; aMMP (100 mM), 160 min after trypsin treatm.) was 10^1 TCID50/ml. For the same molecule, the “HIV concn in the supernatant” value ([1]; aMMP (100 mM), 24 h after trypsin treatm.) was 10^1 TCID50/ml, the “reduction of the amount of infectious HIV 1 in the basal compartment” value ([2]; aMMP (100 mM)) was 1 order of magnitude and the “amount of infectious HIV 1 in the basal compartment” value ([2]; preincubation with aMMP (100 mM)) was 10^2 TCID50/ml. For the same molecule, the “transport of gp120-coated particles, % of the level for unstimulated cells” value ([3]; aMMP 100 mM final concentration) was “about 50%”.
